# Values of other authors in patent publication US20140322324A1, “Composition For The Treatment Of Bacterial Infections” (priority 2011, published 2014).
# Test system: Staphylococcus aureus (ATCC #14154 and #14775)
# Settings: two strains of Staphylococcus aureus (ATCC #14154 and #14775); for the combination: concentration of each
compound,measurement,value
CCCCCCCCCCCC(=O)OCC(O)CO (stereo not shown) [monolaurin],bactericidal concentration in culture,mirrored origanum oil
